Consider 32 compounds from patent US10414759B2, “Phenylthiazoles and uses thereof” (Purdue Research Foundation, priority 2017, dated 2019).

One data set concerns MRSA (2658 RCMB). Briefly: MIC against MRSA (2658 RCMB), broth dilution. The conditions noted are these: for MIC: Staphylococcus aureus. The format is cell-based, Staphylococcus aureus. On the procedure: Bacteria were cultured in cation-adjusted Mueller Hinton broth in a 96-well plate. Compounds, using triplicate samples, were added to the plate and serially diluted. […] Plates were visually inspected and the MIC was categorized as the concentration at which no visible growth of bacteria was observed. The average of triplicate MIC determinations is reported.
A bacterial solution equivalent to 0.5 McFarland standard was prepared and diluted in cation-adjusted Mueller-Hinton broth (CAMHB) to achieve a bacterial concentration of about 5×10^5 CFU/mL and seeded in 96-well plates. Enterococcus faecium was diluted in brain heart infusion broth. Enterococcus faecalis, Streptococcus pneumonia and Listeria monocytogenes were diluted in tryptone soya broth (TSB).

[1] abbreviates: Table 1, MRSA (2658 RCMB), read-out: MIC ± SD.
Setting [2] is: Table 7, initial screening, MRSA (2658 RCMB), read-out: minimum inhibitory concentration (MIC).
[3] abbreviates: Table 7, initial screening, MRSA (2658 RCMB).

In brackets after ≈: the same amount, converted by molar mass. Like-named read-outs stand apart in the source and are kept apart here.

In turn, `CCCCc1ccc(-c2nc(C)c(C(=O)/C=C/N(C)C)s2)cc1` [Compound 4, (E)-1-[2-(4-Butylphenyl)-4-methylthiazol-5-yl]-3-(dimethyl-amino)prop-2-en-1-one] showed a melting point of 105.4 °C. The MIC with MRSA (2658 RCMB) (setting [1]) was more than 25 µg/mL.

Consider `CCCCc1ccc(-c2nc(C)c(-c3ccnc(NC)n3)s2)cc1` [Compound 9, 4-[2-(4-Butylphenyl)-4-methylthiazol-5-yl]-N-methylpyrimidin-2-amine], for which the melting point was 227 °C (dec.). Moreover, in the data set on MRSA (2658 RCMB) (setting [1]), the MIC was more than 25 µg/mL. In addition, in the data set on MRSA (2658 RCMB) (Table 1), the “antibacterial (anti-MRSA) activity, in words” value (from here on “antibacterial”) was “dramatically decreased the antibacterial activity”.

Regarding `CCCCc1ccc(-c2nc(C)c(-c3ccnc(NC#N)n3)s2)cc1` [Compound 10, N-{4-[2-(4-Butylphenyl)-4-methylthiazol-5-yl]pyrimidin-2-yl}cyanamide], the melting point came to 118 °C. In addition, the MIC with MRSA (2658 RCMB) (setting [1]) was determined as 18.7 ± 2.3 µg/mL (≈ 53.5 µM). Further, the “antibacterial” value with MRSA (2658 RCMB) (Table 1) is “dramatically decreased the antibacterial activity”.

With `CCCCc1ccc(-c2nc(C)c(-c3ccnc(NC(N)=S)n3)s2)cc1` [Compound 12, 1-{4-[2-(4-Butylphenyl)-4-methylthiazol-5-yl]pyrimidin-2-yl}thiourea], the melting point is 212 °C (dec.). Further, the MIC with MRSA (2658 RCMB) (MRSA, read-out: MIC ± SD) was more than 25 µg/mL. Further, the “antibacterial” value in the data set with MRSA (2658 RCMB) (Table 1) was “complete abolishment of the anti-MRSA activity”.

In the case of `CCCCc1ccc(-c2nc(C)c(-c3ccnc(-c4cccnc4)n3)s2)cc1` [Compound 13, 2-(4-Butylphenyl)-4-methyl-5-[2-(38yridine-3-yl)pyrimidin-4-yl]thiazole], the “antibacterial” value with MRSA (2658 RCMB) (Table 1) is reported as “exhibited no antibacterial activity”. In the data set on MRSA (2658 RCMB) (Table 1, MRSA (2658 RCMB)), the “MIC ± SD” value came out at 17.2 ± 0.4 µg/mL (≈ 44.5 µM).

Consider `CCCCc1ccc(-c2nc(C)c(-c3ccnc(-n4cccn4)n3)s2)cc1` [Compound 14, 2-(4-Butylphenyl)-5-[2-(1H-pyrazol-1-yl)pyrimidin-4-yl]-4-methylthiazole], for which the melting point is 163.7 °C. Further, the MIC in the data set on MRSA (2658 RCMB) (setting [1]) was more than 25 µg/mL. In addition, the “antibacterial” value in the data set with MRSA (2658 RCMB) (Table 1) was “exhibited no antibacterial activity”.

`CCCCc1ccc(-c2nc(C)c(-c3ccnc(N4CCCC4)n3)s2)cc1` [Compound 15, 2-(4-Butylphenyl)-4-methyl-5-(2-(pyrrolidin-1-yl)pyrimidin-4-yl)thiazole] returned a melting point of 153.7 °C. Besides, the MIC in the data set on MRSA (2658 RCMB) (setting [1]) was more than 25 µg/mL. For the same compound, the “antibacterial” value with MRSA (2658 RCMB) (Table 1) is recorded as “lacks any antibacterial activity”.

Regarding `CCCCc1ccc(-c2nc(C)c(-c3ccn4ncnc4n3)s2)cc1` [Compound 16, 5-([1,2,4]Triazolo[1,5-a]pyrimidin-5-yl)-2-(4-butylphenyl)-4-methylthiazole], the MIC in the data set on MRSA (2658 RCMB) (setting [1]) was more than 25 µg/mL.

Regarding `CCCCc1ccc(-c2nc(C)c(-c3ccnc(NC(=N)N)n3)s2)cc1` [Compound 18, 2-(4-Butylphenyl)-5-(2-guanidinylpyrimidin-4-yl)-4-methylthiazole], the MIC in the data set on MRSA (2658 RCMB) (setting [1]) stood at 1.56 µg/mL (≈ 4.26 µM). Moreover, the “MIC ± SD” value in the data set with MRSA (2658 RCMB) (Table 1, MRSA (2658 RCMB)) came out at 1.56 ± 0.10 µg/mL (≈ 4.26 µM).

On to `CCCCc1ccc(-c2nc(C)c(-c3ccnc(N=C(N(C)C)N(C)C)n3)s2)cc1` [Compound 19, 2-{4-[42-(4-Butylphenyl)-4-methylthiazol-5-yl]pyrimidin-2-yl}-1,1,3,3-tetramethyl guanidine], for which the “antibacterial” value with MRSA (2658 RCMB) (Table 1) is reported as “revealed no antibacterial efficacy”. Moreover, the “MIC ± SD” value with MRSA (2658 RCMB) (Table 1, MRSA (2658 RCMB)) was more than 25 µg/mL.

Turning to `Cc1nc(-c2ccc(I)cc2)sc1-c1ccnc(N)n1` [Compound 23, 4-[2-(4-Iodophenyl)-4-methylthiazol-5-yl]pyrimidin-2-amine], the MIC in the data set with MRSA (2658 RCMB) (setting [1]) was more than 25 µg/mL.

As to `Cc1nc(-c2ccc(C3=CCC(C)C3)cc2)sc1-c1ccnc(N)n1` (centres unmarked) [Compound 28, 4-{4-Methyl-2-[4-(4-methylcyclopent-1-en-1-yl)phenyl]thiazol-5-yl}pyrimidin-2-amine], the melting point is 141 °C. In addition, in the data set on MRSA (2658 RCMB) (setting [1]), the MIC worked out at 3.8 ± 0.4 µg/mL (≈ 10.9 µM).

Compound `Cc1nc(-c2ccc(C3=CCCCCC3)cc2)sc1-c1ccnc(N)n1` [Compound 30, 4-{2-[4-(Cyclohept-1-en-1-yl)phenyl]-4-methylthiazol-5-yl}pyrimidin-2-amine] yielded a melting point of 164 °C. Moreover, in the data set on MRSA (2658 RCMB) (setting [1]), the MIC was determined as 3.12 µg/mL (≈ 8.61 µM).

Consider `Cc1nc(-c2ccc(C3=CCCCCCC3)cc2)sc1-c1ccnc(N)n1` [Compound 31, 4-{2-[4-(Cyclooct-1-en-1-yl)phenyl]-4-methylthiazol-5-yl}pyrimidin-2-amine], for which the melting point was 188 °C. In addition, the MIC in the data set on MRSA (2658 RCMB) (setting [1]) turned out to be 5.6 ± 0.1 µg/mL (≈ 14.9 µM).

In turn, `Cc1nc(-c2ccc(C=C3CCCC3)cc2)sc1-c1ccnc(N)n1` [Compound 32, 4-{2-[4-(Cyclopentylidenemethyl)phenyl]-4-methylthiazol-5-yl}pyrimidin-2-amine] showed a melting point of 143 °C. For the same compound, the MIC in the data set on MRSA (2658 RCMB) (setting [1]) turned out to be 1.17 ± 0.19 µg/mL (≈ 3.36 µM).

The compound `Cc1nc(-c2ccc(C=C3CCCCC3)cc2)sc1-c1ccnc(N)n1` [Compound 33, 4-{2-[4-(Cyclohexylidenemethyl)phenyl]-4-methylthiazol-5-yl}pyrimidin-2-amine] registered a melting point of 165 °C. Also, the MIC with MRSA (2658 RCMB) (MRSA, read-out: MIC ± SD) amounted to 1.56 µg/mL (≈ 4.3 µM).

`Cc1nc(-c2ccc(/C=C/C3CCCC3)cc2)sc1-c1ccnc(N)n1` [Compound 34, (E)-4-{2-[4-(2-Cyclopentylvinyl)phenyl]-4-methylthiazol-5-yl}pyrimidin-2-amine] yielded a melting point of 180.7 °C. Besides, in the data set on MRSA (2658 RCMB) (setting [1]), the MIC is 3.12 µg/mL (≈ 8.61 µM).

`Cc1nc(-c2ccc(/C=C/C3CCCCC3)cc2)sc1-c1ccnc(N)n1` [Compound 35, (E)-4-{2-[4-(2-Cyclohexylvinyl)phenyl]-4-methylthiazol-5-yl}pyrimidin-2-amine] returned a melting point of 189 °C. The MIC in the data set on MRSA (2658 RCMB) (setting [1]) was determined as 3.12 µg/mL (≈ 8.29 µM).

As for `Cc1nc(-c2ccc(C(C)(C)C)cc2)sc1-c1ccnc(N)n1` [Compound 40, 4-(2-(4-(tert-Butyl)phenyl)-4-methylthiazol-5-yl)pyrimidin-2-amine], the MIC in the data set with MRSA (2658 RCMB) (setting [2]) was found to be 6.25 µg/mL (≈ 19.3 µM).

In the case of `CNc1nccc(-c2sc(-c3ccc(C(C)(C)C)cc3)nc2C)n1` [Compound 41, 4-(2-(4-(tert-Butyl)phenyl)-4-methylthiazol-5-yl)-N-methylpyrimidin-2-amine], the MIC in the data set on MRSA (2658 RCMB) (setting [2]) was determined as 25 µg/mL (≈ 73.9 µM).

On to `Cc1nc(-c2ccc(C(C)(C)C)cc2)sc1-c1ccnc(N2CCCC2)n1` [Compound 42], for which the “minimum inhibitory concentration (MIC)” value with MRSA (2658 RCMB) (setting [3]) is more than 50 µg/mL.

Consider `Cc1nc(-c2ccc(C(C)(C)C)cc2)sc1-c1ccnc(-c2cccnc2)n1` [Compound 43, 2-(4-(tert-Butyl)phenyl)-4-methyl-5-(2-(pyridin-3-yl)pyrimidin-4-yl)thiazole], for which the MIC in the data set on MRSA (2658 RCMB) (setting [2]) is more than 50 µg/mL.

Turning to `Cc1nc(-c2ccc(C(C)(C)C)cc2)sc1-c1ccnc(N(C)C)n1` [Compound 50, 4-(2-(4-(tert-Butyl)phenyl)-4-methylthiazol-5-yl)-N,N-dimethylpyrimidin-2-amine], the MIC in the data set with MRSA (2658 RCMB) (setting [2]) was more than 50 µg/mL.

For `Cc1nc(-c2ccc(C(C)(C)C)cc2)sc1-c1ccnc(N2CCC2)n1` [Compound 51, 5-(2-(Azetidin-1-yl)pyrimidin-4-yl)-2-(4-(tert-butyl)phenyl)-4-methylthiazole], the MIC in the data set with MRSA (2658 RCMB) (setting [2]) is more than 50 µg/mL.

Regarding `Cc1nc(-c2ccc(C(C)(C)C)cc2)sc1-c1ccnc(N2CCOCC2)n1` [Compound 52, 4-(4-(2-(4-(tert-Butyl)phenyl)-4-methylthiazol-5-yl)pyrimidin-2-yl) morpholine], in the data set with MRSA (2658 RCMB) (setting [2]), the MIC turned out to be 25 µg/mL (≈ 63.4 µM).

Regarding `Cc1nc(-c2ccc(C(C)(C)C)cc2)sc1-c1ccnc(N2CC(O)C2)n1` [Compound 53, 1-(4-(2-(4-(tert-Butyl)phenyl)-4-methylthiazol-5-yl)pyrimidin-2-yl)azetidin-3-ol], the MIC with MRSA (2658 RCMB) (setting [2]) came to 6.25 µg/mL (≈ 16.4 µM).

As for `Cc1nc(-c2ccc(C(C)(C)C)cc2)sc1-c1ccnc(NN)n1` [Compound 55, 2-(4-(tert-Butyl)phenyl)-5-(2-hydrazinylpyrimidin-4-yl)-4-methylthiazole], the MIC in the data set on MRSA (2658 RCMB) (setting [2]) is 1.56 µg/mL (≈ 4.6 µM).

Consider `Cc1nc(-c2ccc(C(C)(C)C)cc2)sc1-c1ccnc(NC(=N)N)n1` [Compound 56, 1-(4-(2-(4-(tert-Butyl)phenyl)-4-methylthiazol-5-yl)pyrimidin-2-yl)guanidine], for which, in the data set on MRSA (2658 RCMB) (setting [2]), the MIC stood at 1.56 µg/mL (≈ 4.26 µM).

In the case of `CNC(=N)Nc1nccc(-c2sc(-c3ccc(C(C)(C)C)cc3)nc2C)n1` [Compound 57, 1-(4-(2-(4-(tert-Butyl)phenyl)-4-methylthiazol-5-yl)pyrimidin-2-yl)-3-methylguanidine], in the data set on MRSA (2658 RCMB) (setting [2]), the MIC turned out to be 1.56 µg/mL (≈ 4.1 µM).

As to `Cc1nc(-c2ccc(C(C)(C)C)cc2)sc1-c1ccnc(N=C(N(C)C)N(C)C)n1` [Compound 59, N-2-(4-(2-(4-(tert-Butyl)phenyl)-4-methylthiazol-5-yl)pyrimidin-2-yl)-1,1,3,3-tetramethylguanidine], the “minimum inhibitory concentration (MIC)” value with MRSA (2658 RCMB) (setting [3]) is more than 50 µg/mL.

As for `Cc1nc(-c2ccc(C(C)(C)C)cc2)sc1-c1ccnc(NC(=N)N2CCCC2)n1` [Compound 60, N-(4-(2-(4-(tert-Butyl)phenyl)-4-methylthiazol-5-yl)pyrimidin-2-yl) pyrrolidine-1-carboximidamide], in the data set with MRSA (2658 RCMB) (setting [2]), the MIC was found to be 50 µg/mL (≈ 119 µM).

`Cc1nc(-c2ccc(C(C)(C)C)cc2)sc1-c1ccnc(NC(=N)N2CCN(C)CC2)n1` [Compound 62, N-(4-(2-(4-(tert-Butyl)phenyl)-4-methylthiazol-5-yl)pyrimidin-2-yl)-4-methylpiperazine-1-carboximidamide]: the MIC in the data set with MRSA (2658 RCMB) (setting [2]) came to 3.12 µg/mL (≈ 6.94 µM).
